From patent publication US10561676B2, “Method for treating cancer using dual antagonists of CXCR1 and CXCR2” (Syntrix Biosystems, Inc., priority 2018, dated 2020)

Columns and labels:
[1] = system: isolated human neutrophils; test: CXCL8-mediated intracellular calcium flux in isolated human neutrophils; assay type: cell-based; conditions: Neutrophil, 25 nM CXCL8, mean ±SE
Description: Cells were incubated for 30 min at 37° C. […] The test compound or DMSO (control) was added again at the same concentrations that were used during cell loading.
The maximum change in fluorescence, expressed in arbitrary units over baseline (Max-Min), was used to determine the CXCL8 response.

CXCR1 = target: T1, CXCR1 (Homo sapiens, UniProt P25024); test: Wash-resistant inhibition of CXCL8-mediated calcium flux, CXCR1-transfected RBL cells; assay type: cell-based; conditions: 30 min incubation at 0.4, 2, 10 μM, then washout
T1 construct: expressed in transfected cells
T1 sequence (P25024 1-350): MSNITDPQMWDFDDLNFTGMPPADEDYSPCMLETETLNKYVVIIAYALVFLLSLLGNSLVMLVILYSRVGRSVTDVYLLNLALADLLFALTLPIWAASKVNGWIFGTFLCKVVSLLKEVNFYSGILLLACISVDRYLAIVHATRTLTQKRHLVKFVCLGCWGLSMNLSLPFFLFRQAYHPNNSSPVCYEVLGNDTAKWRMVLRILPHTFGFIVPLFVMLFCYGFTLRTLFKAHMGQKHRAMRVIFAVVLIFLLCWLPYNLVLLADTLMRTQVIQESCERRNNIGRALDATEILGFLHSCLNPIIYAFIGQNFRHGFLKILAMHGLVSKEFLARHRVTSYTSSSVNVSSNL
Description: In order to test this hypothesis, RBL cells (10^7 cells/ml) stably transfected with either CXCR1 or CXCR2 were (1) incubated with SX-682 at various concentrations for 30 minutes at 37° C., (2) washed and resuspended in assay buffer (RPMI/2% serum) at room temperature, and (3) assayed for CXCL8-mediated calcium response at time points up to 12 h after inhibitor washout. The concentrations of SX-682 tested were 0 (positive control), 0 (negative control), 0.4, 2, and 10 μM. At 30 minutes before each time point, a 56.25 μl aliquot of the cells were removed and loaded for 30 minutes at room temperature in the dark with FLIPR™ 3 reagent (262.5 μl per tube). Following FLIPR™ 3 incubation, cells were assayed for CXCL8 mediated intracellular calcium release as described in Pharmacology Example 1.

Sprague-Dawley rats = test: Ozone rat model of pulmonary inflammation (neutrophil influx into BALF); assay type: in vivo
Description: SX-682 was assayed in an in vivo rat model of pulmonary inflammation. Activity in this model of pulmonary inflammation provides evidence that supports the use of SX-682 in the treatment of a number of pulmonary inflammatory diseases, including chronic obstructive pulmonary disease (COPD) and bronchopulmonary dysplasia (BPD). In this experiment, Sprague-Dawley rats (n=4 per cohort) were dosed intravenously only once at t=0 with either vehicle control (dimethylformamide/PEG400/saline, 40:40:20), positive inhibitor control (SX-576, 1 mg/kg) or the test compound (SX-682, 1 mg/kg). The rats were then placed in air (negative exposure group; vehicle control only) or 1 ppm ozone (positive exposure group; vehicle control, positive inhibitor control SX-576, and test compound SX-682) for 4 hours. The rats were then sacrificed at t=24 hours, and the bronchoalveolar lavage fluid (BALF) was collected. The cells were spun down, stained with Wright-Giemsa and counted. In the negative exposure group, no neutrophils were observed when stained. In the ozone exposed rats treated with vehicle however, there was a brisk influx of neutrophils of approximately 14,000 per mL of BALF (FIG. 5).

[2] = system: 60 human tumor cell line panel; test: 60 human tumor cell line panel proliferation (SRB); assay type: cell-based; conditions: 0.01-100 μM, 48 h
Description: The chemokine CXCL8 and its receptors CXCR1 and CXCR2 have been identified as important mediators of cellular proliferation for a number of tumor cell types.
The human tumor cell lines of the cancer screening panel were grown in RPMI 1640 medium containing 5% fetal bovine serum and 2 mM L-glutamine. […] After cell inoculation, the microtiter plates were incubated at 37° C., 5% CO2, 95% air and 100% relative humidity for 24 h prior to addition of SX-682.
After 24 h, two plates of each cell line are fixed in situ with TCA, to represent a measurement of the cell population for each cell line at the time of drug addition (Tz). […]
Following drug addition, the plates were incubated for an additional 48 h at 37° C., 5% CO2, 95% air, and 100% relative humidity. […] Bound stain was subsequently solubilized with 10 mM TRIS, and the absorbance was read on an automated plate reader at a wavelength of 515 nm. […] Using the seven absorbance measurements (time zero, (Tz), control growth, (C), and test growth in the presence of drug at the five concentration levels (Ti)), the percentage growth was calculated at each of the drug concentrations levels. Percentage growth inhibition was calculated as: (Ti−Tz)/(C−Tz)×100 for concentrations for which Ti>/=Tz (Ti−Tz)/Tz×100 for concentrations for which Ti<Tz.
Three dose response parameters were calculated for each experimental agent. […]

O=C(Nc1ccc(F)cc1)c1cnc(SCc2cc(OC(F)(F)F)ccc2B(O)O)nc1 [SX-682, 2-(2-boronic acid-5-trifluoromethoxy-benzylsulfanyl)-pyrimidine-5-carboxylic acid (4-fluoro-phenyl)-amide]
IC50 [1]: 0.055 ± 0.006 µM | time inhibition of calcium flux is sustained after washout (CXCR1): at least 12 hours | influx of neutrophils into the lungs (BALF) vs vehicle (Sprague-Dawley rats; 1 mg/kg i.v. once, 1 ppm ozone 4 hours, BALF at 24 hours): significantly decreased the influx of neutrophils | time inhibition of neutrophil influx into BALF is sustained (Sprague-Dawley rats; single dose of 1 mg/kg i.v.): 24 h | tumor cell proliferation [2]: directly affect the proliferation of human tumor cells
